Assay results: PubChem BioAssay (NCI)
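Compound exposure: 48 hours, 5 concentrations, 96-well plates. Abbreviation: GI50, concentration required for 50% inhibition of growth. TGI: total growth inhibition.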

Columns and labels:
Experiment in all cases: NCI anticancer screen, dose series, 48 h
OVCAR-3 ovarian = system: OVCAR-3 ovarian
RXF 393 renal = system: RXF 393 renal
786-0 renal = system: 786-0 renal
MALME-3M melanoma = system: MALME-3M melanoma
SK-MEL-28 melanoma = system: SK-MEL-28 melanoma
RPMI-8226 leukemia = system: RPMI-8226 leukemia
U251 CNS = system: U251 CNS
NCI/ADR-RES ovarian = system: NCI/ADR-RES ovarian
HCT-15 colon = system: HCT-15 colon
PC-3 prostate = system: PC-3 prostate
ACHN renal = system: ACHN renal
SW-620 colon = system: SW-620 colon
KM12 colon = system: KM12 colon
NCI-H522 lung = system: NCI-H522 lung
SNB-75 CNS = system: SNB-75 CNS
HOP-62 NSCLC = system: HOP-62 NSCLC
SR leukemia = system: SR leukemia
T-47D breast = system: T-47D breast
NCI-H23 lung = system: NCI-H23 lung
SK-MEL-2 melanoma = system: SK-MEL-2 melanoma
HS 578T breast = system: HS 578T breast
EKVX NSCLC = system: EKVX NSCLC
K-562 leukemia = system: K-562 leukemia
SK-MEL-5 melanoma = system: SK-MEL-5 melanoma
NCI-H460 lung = system: NCI-H460 lung
UACC-62 melanoma = system: UACC-62 melanoma
LOX IMVI melanoma = system: LOX IMVI melanoma
TK-10 renal = system: TK-10 renal
MDA-MB-231 breast = system: MDA-MB-231 breast
OVCAR-8 ovarian = system: OVCAR-8 ovarian
SF-268 CNS = system: SF-268 CNS
OVCAR-4 ovarian = system: OVCAR-4 ovarian
HT29 colon = system: HT29 colon
SF-295 CNS = system: SF-295 CNS
UO-31 renal = system: UO-31 renal
HCC-2998 colon = system: HCC-2998 colon
HL-60(TB) leukemia = system: HL-60(TB) leukemia
OVCAR-5 ovarian = system: OVCAR-5 ovarian
SK-OV-3 ovarian = system: SK-OV-3 ovarian
UACC-257 melanoma = system: UACC-257 melanoma
IGROV1 ovarian = system: IGROV1 ovarian
CAKI-1 renal = system: CAKI-1 renal
HOP-92 NSCLC = system: HOP-92 NSCLC
MCF7 breast = system: MCF7 breast
NCI-H226 lung = system: NCI-H226 lung
BT-549 breast = system: BT-549 breast
SF-539 CNS = system: SF-539 CNS
MOLT-4 leukemia = system: MOLT-4 leukemia
HCT-116 colon = system: HCT-116 colon
A549 NSCLC = system: A549 NSCLC
MDA-MB-435 = system: MDA-MB-435
M14 melanoma = system: M14 melanoma
A498 renal = system: A498 renal
SN12C renal = system: SN12C renal
COLO 205 colon = system: COLO 205 colon
CCRF-CEM leukemia = system: CCRF-CEM leukemia
SNB-19 CNS = system: SNB-19 CNS
DU-145 prostate = system: DU-145 prostate

SMILES: Cc1nc(C(N)=S)sc1C(=O)CC(=O)C(=O)Nc1nc2ccccc2[nH]1
- TGI (OVCAR-3 ovarian): > 100 µM
- TGI (RXF 393 renal): > 100 µM
- TGI (786-0 renal): > 100 µM
- TGI (MALME-3M melanoma): > 100 µM
- TGI (SK-MEL-28 melanoma): > 100 µM
- TGI (RPMI-8226 leukemia): > 100 µM
- TGI (U251 CNS): > 100 µM
- TGI (NCI/ADR-RES ovarian): > 100 µM
- TGI (HCT-15 colon): > 100 µM
- TGI (PC-3 prostate): > 100 µM
- TGI (ACHN renal): > 100 µM
- TGI (SW-620 colon): > 100 µM
- TGI (KM12 colon): > 100 µM
- TGI (NCI-H522 lung): > 100 µM
- TGI (SNB-75 CNS): > 100 µM
- TGI (HOP-62 NSCLC): > 100 µM
- TGI (SR leukemia): > 100 µM
- TGI (T-47D breast): > 100 µM
- TGI (NCI-H23 lung): > 100 µM
- TGI (SK-MEL-2 melanoma): > 100 µM
- TGI (HS 578T breast): > 100 µM
- TGI (EKVX NSCLC): > 100 µM
- TGI (K-562 leukemia): > 100 µM
- TGI (SK-MEL-5 melanoma): > 100 µM
- TGI (NCI-H460 lung): > 100 µM
- TGI (UACC-62 melanoma): > 100 µM
- TGI (LOX IMVI melanoma): > 100 µM
- TGI (TK-10 renal): > 100 µM
- TGI (MDA-MB-231 breast): > 100 µM
- TGI (OVCAR-8 ovarian): > 100 µM
- TGI (SF-268 CNS): > 100 µM
- TGI (OVCAR-4 ovarian): > 100 µM
- TGI (HT29 colon): > 100 µM
- TGI (SF-295 CNS): > 100 µM
- TGI (UO-31 renal): > 100 µM
- TGI (HCC-2998 colon): > 100 µM
- TGI (HL-60(TB) leukemia): > 100 µM
- TGI (OVCAR-5 ovarian): > 100 µM
- TGI (SK-OV-3 ovarian): > 100 µM
- TGI (UACC-257 melanoma): > 100 µM
- TGI (IGROV1 ovarian): > 100 µM
- TGI (CAKI-1 renal): > 100 µM
- TGI (HOP-92 NSCLC): > 100 µM
- TGI (MCF7 breast): > 100 µM
- TGI (NCI-H226 lung): > 100 µM
- TGI (BT-549 breast): > 100 µM
- TGI (SF-539 CNS): > 100 µM
- TGI (MOLT-4 leukemia): > 100 µM
- TGI (HCT-116 colon): > 100 µM
- TGI (A549 NSCLC): > 100 µM
- TGI (MDA-MB-435): > 100 µM
- TGI (M14 melanoma): > 100 µM
- TGI (A498 renal): > 100 µM
- TGI (SN12C renal): > 100 µM

SMILES: O=C(/C(=C/c1ccc([N+](=O)[O-])cc1)SCc1ccc(F)cc1)c1ccc(Cl)cc1
- GI50 (OVCAR-3 ovarian): 3.06 µM
- TGI (OVCAR-3 ovarian): 10.6 µM
- GI50 (RXF 393 renal): 15.5 µM
- TGI (RXF 393 renal): 36.6 µM
- GI50 (COLO 205 colon): 6.46 µM
- TGI (COLO 205 colon): 28.5 µM
- GI50 (786-0 renal): 10.9 µM
- TGI (786-0 renal): 24.6 µM
- GI50 (MALME-3M melanoma): 10.1 µM
- TGI (MALME-3M melanoma): 24.6 µM
- GI50 (SK-MEL-28 melanoma): 16.4 µM
- TGI (SK-MEL-28 melanoma): 45.8 µM
- GI50 (RPMI-8226 leukemia): 1.92 µM
- TGI (RPMI-8226 leukemia): 6.36 µM
- GI50 (U251 CNS): 2.07 µM
- TGI (U251 CNS): 4.02 µM
- GI50 (NCI/ADR-RES ovarian): 4.57 µM
- TGI (NCI/ADR-RES ovarian): > 100 µM
- GI50 (HCT-15 colon): 2.9 µM
- TGI (HCT-15 colon): 11.6 µM
- GI50 (PC-3 prostate): 3.93 µM
- TGI (PC-3 prostate): 16.2 µM
- GI50 (ACHN renal): 1.96 µM
- TGI (ACHN renal): 4.1 µM
- GI50 (SW-620 colon): 2.03 µM
- TGI (SW-620 colon): 4.78 µM
- GI50 (KM12 colon): 2.81 µM
- TGI (KM12 colon): 8.63 µM
- GI50 (NCI-H522 lung): 1.88 µM
- TGI (NCI-H522 lung): 4.44 µM
- GI50 (SNB-75 CNS): 73 µM
- TGI (SNB-75 CNS): > 100 µM
- GI50 (HOP-62 NSCLC): 18.9 µM
- TGI (HOP-62 NSCLC): 47.3 µM
- GI50 (SR leukemia): 2.63 µM
- TGI (SR leukemia): > 100 µM
- GI50 (T-47D breast): 7 µM
- TGI (T-47D breast): 26.2 µM
- GI50 (NCI-H23 lung): 11 µM
- TGI (NCI-H23 lung): 68.7 µM
- GI50 (SK-MEL-2 melanoma): 13.8 µM
- TGI (SK-MEL-2 melanoma): 36.4 µM
- GI50 (HS 578T breast): 3 µM
- TGI (HS 578T breast): 9.32 µM
- GI50 (CCRF-CEM leukemia): 3.17 µM
- TGI (CCRF-CEM leukemia): > 100 µM
- GI50 (EKVX NSCLC): 11.5 µM
- TGI (EKVX NSCLC): 38.6 µM
- GI50 (K-562 leukemia): 3.05 µM
- TGI (K-562 leukemia): > 100 µM
- GI50 (SK-MEL-5 melanoma): 4.33 µM
- TGI (SK-MEL-5 melanoma): 15.2 µM
- GI50 (NCI-H460 lung): 19 µM
- TGI (NCI-H460 lung): > 100 µM
- GI50 (UACC-62 melanoma): 5.4 µM
- TGI (UACC-62 melanoma): 36.6 µM
- GI50 (LOX IMVI melanoma): 1.73 µM
- TGI (LOX IMVI melanoma): 3.27 µM
- GI50 (TK-10 renal): 20.1 µM
- TGI (TK-10 renal): 54.8 µM
- GI50 (MDA-MB-231 breast): 4.37 µM
- TGI (MDA-MB-231 breast): 23 µM
- GI50 (OVCAR-8 ovarian): 6.6 µM
- TGI (OVCAR-8 ovarian): 96.6 µM
- GI50 (SF-268 CNS): 9.44 µM
- TGI (SF-268 CNS): 33.5 µM
- GI50 (OVCAR-4 ovarian): 3.12 µM
- TGI (OVCAR-4 ovarian): 13 µM
- GI50 (HT29 colon): 2.38 µM
- TGI (HT29 colon): 6.2 µM
- GI50 (SF-295 CNS): 7.09 µM
- TGI (SF-295 CNS): 25.1 µM
- GI50 (UO-31 renal): 3.6 µM
- TGI (UO-31 renal): 17.8 µM
- GI50 (HCC-2998 colon): 5.11 µM
- TGI (HCC-2998 colon): 19 µM
- GI50 (HL-60(TB) leukemia): 4.33 µM
- TGI (HL-60(TB) leukemia): 40.4 µM
- GI50 (SNB-19 CNS): 3.28 µM
- TGI (SNB-19 CNS): 11.6 µM
- GI50 (OVCAR-5 ovarian): 12.7 µM
- TGI (OVCAR-5 ovarian): 38.9 µM
- GI50 (DU-145 prostate): 38.6 µM
- TGI (DU-145 prostate): > 100 µM
- GI50 (SK-OV-3 ovarian): 37.1 µM
- TGI (SK-OV-3 ovarian): > 100 µM
- GI50 (UACC-257 melanoma): 16 µM
- TGI (UACC-257 melanoma): 34.2 µM
- GI50 (IGROV1 ovarian): 9.4 µM
- TGI (IGROV1 ovarian): 38.7 µM
- GI50 (HOP-92 NSCLC): 19.2 µM
- TGI (HOP-92 NSCLC): > 100 µM
- GI50 (NCI-H226 lung): 13.7 µM
- TGI (NCI-H226 lung): 44.5 µM
- GI50 (BT-549 breast): 3.38 µM
- TGI (BT-549 breast): 16.4 µM
- GI50 (SF-539 CNS): 15.5 µM
- TGI (SF-539 CNS): 33.2 µM
- GI50 (MOLT-4 leukemia): 3.54 µM
- TGI (MOLT-4 leukemia): > 100 µM
- GI50 (A549 NSCLC): > 100 µM
- TGI (A549 NSCLC): > 100 µM
- GI50 (MDA-MB-435): 2.78 µM
- TGI (MDA-MB-435): 9.49 µM
- GI50 (M14 melanoma): 3.91 µM
- TGI (M14 melanoma): 20.2 µM
- GI50 (A498 renal): > 100 µM
- TGI (A498 renal): > 100 µM
- GI50 (SN12C renal): 6.94 µM
- TGI (SN12C renal): 34.5 µM
